# Measurements taken from PubChem BioAssay AID1845205 (Molecular Pharmacology Branch, DTP, NCI, 2023).
# Test system: MPNST multicellular tumor spheroids, viability % test/control
# Test: Anticancer human tumor MPNST cell line growth inhibition;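 also: spheroids exposed to agents for seven days after three days of growth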;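 as to viability, T/C: luminescence signal used as surrogate for viable cell amount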
# Conditions: for IC50: curve of first compound; for viability, T/C: stronger effect = lower value
# Method in brief: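 Complex tumor spheroids combined malignant cells with endothelial cells and mesenchymal stem cells. DNA-damaging drugs and DNA repair inhibitors were tested alone and in combination, at half-log dilutions down from clinical Cmax (top 10 microM if Cmax unknown), 0.25% DMSO final.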
# [1] = second compound 30 pM, first compound 0.0316 µM
# [2] = second compound 30 pM, first compound 0.1 µM
# [3] = second compound 30 pM, first compound 0.316 µM
# [4] = second compound 30 pM, first compound 1 µM
# [5] = second compound 30 pM, first compound 3.16 µM
# [6] = second compound 30 pM, first compound 10 µM
# [7] = second compound 94.9 pM, first compound 0.0316 µM
# [8] = second compound 94.9 pM, first compound 0.1 µM
# [9] = second compound 94.9 pM, first compound 0.316 µM
# [10] = second compound 94.9 pM, first compound 1 µM
# [11] = second compound 94.9 pM, first compound 3.16 µM
# [12] = second compound 94.9 pM, first compound 10 µM
# [13] = second compound 0.0003 µM, first compound 0.0316 µM
# [14] = second compound 0.0003 µM, first compound 0.1 µM
# [15] = second compound 0.0003 µM, first compound 0.316 µM
# [16] = second compound 0.0003 µM, first compound 1 µM
# [17] = second compound 0.0003 µM, first compound 3.16 µM
# [18] = second compound 0.0003 µM, first compound 10 µM
# [19] = second compound 0.000949 µM, first compound 0.0316 µM
# [20] = second compound 0.000949 µM, first compound 0.1 µM
# [21] = second compound 0.000949 µM, first compound 0.316 µM
# [22] = second compound 0.000949 µM, first compound 1 µM
# [23] = second compound 0.000949 µM, first compound 3.16 µM
# [24] = second compound 0.000949 µM, first compound 10 µM
# [25] = second compound 0.003 µM, first compound 0.0316 µM
# [26] = second compound 0.003 µM, first compound 0.1 µM
# [27] = second compound 0.003 µM, first compound 0.316 µM
# [28] = second compound 0.003 µM, first compound 1 µM
# [29] = second compound 0.003 µM, first compound 3.16 µM
# [30] = second compound 0.003 µM, first compound 10 µM
# [31] = second compound 1 µM, first compound 0.00949 µM
# [32] = second compound 1 µM, first compound 0.03 µM
# [33] = second compound 1 µM, first compound 0.0949 µM
# [34] = second compound 1 µM, first compound 0.3 µM
# [35] = second compound 1 µM, first compound 0.949 µM
# [36] = second compound 1 µM, first compound 3 µM
# [37] = second compound 3.16 µM, first compound 0.00949 µM
# [38] = second compound 3.16 µM, first compound 0.03 µM
# [39] = second compound 3.16 µM, first compound 0.0949 µM
# [40] = second compound 3.16 µM, first compound 0.3 µM
# [41] = second compound 3.16 µM, first compound 0.949 µM
# [42] = second compound 3.16 µM, first compound 3 µM
# [43] = second compound 10 µM, first compound 0.00949 µM
# [44] = second compound 10 µM, first compound 0.03 µM
# [45] = second compound 10 µM, first compound 0.0949 µM
# [46] = second compound 10 µM, first compound 0.3 µM
# [47] = second compound 10 µM, first compound 0.949 µM
# [48] = second compound 10 µM, first compound 3 µM
# [49] = second compound 31.6 µM, first compound 0.00949 µM
# [50] = second compound 31.6 µM, first compound 0.03 µM
# [51] = second compound 31.6 µM, first compound 0.0949 µM
# [52] = second compound 31.6 µM, first compound 0.3 µM
# [53] = second compound 31.6 µM, first compound 0.949 µM
# [54] = second compound 31.6 µM, first compound 3 µM
# [55] = second compound 100 µM, first compound 0.00949 µM
# [56] = second compound 100 µM, first compound 0.03 µM
# [57] = second compound 100 µM, first compound 0.0949 µM
# [58] = second compound 100 µM, first compound 0.3 µM
# [59] = second compound 100 µM, first compound 0.949 µM
# [60] = second compound 100 µM, first compound 3 µM
structure (smiles),measurement,setting,value
CC(C)n1c(=O)n(C)c2cnc3cc(F)c(-c4ccc(OCCCN5CCCCC5)nc4)cc3c21 + COc1cc2c(cc1O)CCNC21CSC2c3c(OC(C)=O)c(C)c4c(c3C(COC1=O)N1C(O)C3Cc5cc(C)c(OC)c(O)c5C(C21)N3C)OCO4,IC50,second compound 30 pM,> 10 µM
same,IC50,second compound 94.9 pM,> 10 µM
same,IC50,second compound 0.0003 µM,> 10 µM
same,IC50,second compound 0.000949 µM,< 0.0316 µM
same,IC50,second compound 0.003 µM,< 0.0316 µM
same,"viability, T/C",[1],94.6%
same,"viability, T/C",[2],76.6%
same,"viability, T/C",[3],79.8%
same,"viability, T/C",[4],135%
same,"viability, T/C",[5],110%
same,"viability, T/C",[6],72.2%
same,"viability, T/C",[7],72.3%
same,"viability, T/C",[8],68.9%
same,"viability, T/C",[9],79.3%
same,"viability, T/C",[10],64.6%
same,"viability, T/C",[11],63.5%
same,"viability, T/C",[12],59.3%
same,"viability, T/C",[13],55.8%
same,"viability, T/C",[14],47.3%
same,"viability, T/C",[15],61.1%
same,"viability, T/C",[16],67.5%
same,"viability, T/C",[17],52.5%
same,"viability, T/C",[18],40.8%
same,"viability, T/C",[19],47.2%
same,"viability, T/C",[20],46.6%
same,"viability, T/C",[21],45.5%
same,"viability, T/C",[22],48.1%
same,"viability, T/C",[23],45.2%
same,"viability, T/C",[24],37.1%
same,"viability, T/C",[25],13.8%
same,"viability, T/C",[26],13.6%
same,"viability, T/C",[27],11.6%
same,"viability, T/C",[28],10.3%
same,"viability, T/C",[29],10%
same,"viability, T/C",[30],6.09%
COc1ccc([C@@H](O)c2cc(-c3ncnc4cc(N5CCOCC5)ccc34)c(F)cc2Cl)nn1 + COc1cc2c(cc1O)CCNC21CSC2c3c(OC(C)=O)c(C)c4c(c3C(COC1=O)N1C(O)C3Cc5cc(C)c(OC)c(O)c5C(C21)N3C)OCO4,IC50,second compound 30 pM,0.171 µM
same,IC50,second compound 94.9 pM,0.531 µM
same,IC50,second compound 0.0003 µM,0.645 µM
same,IC50,second compound 0.000949 µM,0.174 µM
same,IC50,second compound 0.003 µM,< 0.0316 µM
same,"viability, T/C",[1],97.1%
same,"viability, T/C",[2],72%
same,"viability, T/C",[3],24.1%
same,"viability, T/C",[4],12.8%
same,"viability, T/C",[5],5.82%
same,"viability, T/C",[6],3.35%
same,"viability, T/C",[7],113%
same,"viability, T/C",[8],74.7%
same,"viability, T/C",[9],70.9%
same,"viability, T/C",[10],39.6%
same,"viability, T/C",[11],8.1%
same,"viability, T/C",[12],3.63%
same,"viability, T/C",[13],89.4%
same,"viability, T/C",[14],70.9%
same,"viability, T/C",[15],92.8%
same,"viability, T/C",[16],28.8%
same,"viability, T/C",[17],9.77%
same,"viability, T/C",[18],2.97%
same,"viability, T/C",[19],84.4%
same,"viability, T/C",[20],48.4%
same,"viability, T/C",[21],55.4%
same,"viability, T/C",[22],14.4%
same,"viability, T/C",[23],11.7%
same,"viability, T/C",[24],0.94%
same,"viability, T/C",[25],15.7%
same,"viability, T/C",[26],16.1%
same,"viability, T/C",[27],8.56%
same,"viability, T/C",[28],4.27%
same,"viability, T/C",[29],2.63%
same,"viability, T/C",[30],0.51%
CNCc1ccc(-c2cc(-c3nc(-c4ccc(S(=O)(=O)C(C)C)cc4)cnc3N)on2)cc1 + Cn1nnc2c(C(N)=O)ncn2c1=O,IC50,second compound 1 µM,> 3 µM
same,IC50,second compound 3.16 µM,> 3 µM
same,IC50,second compound 10 µM,> 3 µM
same,IC50,second compound 31.6 µM,> 3 µM
same,IC50,second compound 100 µM,> 3 µM
same,"viability, T/C",[31],110%
same,"viability, T/C",[32],102%
same,"viability, T/C",[33],83%
same,"viability, T/C",[34],77.9%
same,"viability, T/C",[35],63.1%
same,"viability, T/C",[36],63.8%
same,"viability, T/C",[37],125%
same,"viability, T/C",[38],120%
same,"viability, T/C",[39],97.9%
same,"viability, T/C",[40],75.3%
same,"viability, T/C",[41],64.8%
same,"viability, T/C",[42],61.1%
same,"viability, T/C",[43],95.6%
same,"viability, T/C",[44],114%
same,"viability, T/C",[45],98.5%
same,"viability, T/C",[46],74.8%
same,"viability, T/C",[47],71.8%
same,"viability, T/C",[48],69.5%
same,"viability, T/C",[49],105%
same,"viability, T/C",[50],81.1%
same,"viability, T/C",[51],79.8%
same,"viability, T/C",[52],66.6%
same,"viability, T/C",[53],58%
same,"viability, T/C",[54],64.3%
same,"viability, T/C",[55],92.1%
same,"viability, T/C",[56],95.7%
same,"viability, T/C",[57],83%
same,"viability, T/C",[58],61.4%
same,"viability, T/C",[59],58.5%
same,"viability, T/C",[60],61.7%
Cn1ncnc1[C@H]1c2n[nH]c(=O)c3cc(F)cc(c23)N[C@@H]1c1ccc(F)cc1 + Cn1nnc2c(C(N)=O)ncn2c1=O,IC50,second compound 1 µM,2.76 µM
same,IC50,second compound 3.16 µM,> 3 µM
same,IC50,second compound 10 µM,> 3 µM
same,IC50,second compound 31.6 µM,0.505 µM
same,IC50,second compound 100 µM,0.027 µM
same,"viability, T/C",[31],93.1%
same,"viability, T/C",[32],77.1%
same,"viability, T/C",[33],70.3%
same,"viability, T/C",[34],58.9%
same,"viability, T/C",[35],52%
same,"viability, T/C",[36],50.8%
same,"viability, T/C",[37],77.7%
same,"viability, T/C",[38],74%
same,"viability, T/C",[39],74.2%
same,"viability, T/C",[40],55.2%
same,"viability, T/C",[41],53.7%
same,"viability, T/C",[42],52.7%
same,"viability, T/C",[43],79%
same,"viability, T/C",[44],71.6%
same,"viability, T/C",[45],63.9%
same,"viability, T/C",[46],55.8%
same,"viability, T/C",[47],51.7%
same,"viability, T/C",[48],51.7%
same,"viability, T/C",[49],61.7%
same,"viability, T/C",[50],56%
same,"viability, T/C",[51],58.1%
same,"viability, T/C",[52],48.9%
same,"viability, T/C",[53],48.2%
same,"viability, T/C",[54],46.5%
same,"viability, T/C",[55],52.5%
same,"viability, T/C",[56],50%
same,"viability, T/C",[57],49%
same,"viability, T/C",[58],46.2%
same,"viability, T/C",[59],47.5%
same,"viability, T/C",[60],48.3%
O=C(c1cc(Cc2n[nH]c(=O)c3ccccc23)ccc1F)N1CCN(C(=O)C2CC2)CC1 + Cn1nnc2c(C(N)=O)ncn2c1=O,IC50,second compound 1 µM,17.7 µM
same,IC50,second compound 3.16 µM,22.9 µM
same,IC50,second compound 10 µM,26.4 µM
same,IC50,second compound 31.6 µM,16.4 µM
same,IC50,second compound 100 µM,2.85 µM
same,"viability, T/C",[33],70.9%
same,"viability, T/C",[34],77.9%
same,"viability, T/C",[35],82%
same,"viability, T/C",[36],71.9%
same,"viability, T/C","second compound 1 µM, first compound 9.49 µM",56.1%
same,"viability, T/C","second compound 1 µM, first compound 30 µM",44.9%
same,"viability, T/C",[39],83.8%
same,"viability, T/C",[40],80.2%
same,"viability, T/C",[41],92.1%
same,"viability, T/C",[42],77.2%
same,"viability, T/C","second compound 3.16 µM, first compound 9.49 µM",65.3%
same,"viability, T/C","second compound 3.16 µM, first compound 30 µM",45.4%
same,"viability, T/C",[45],118%
same,"viability, T/C",[46],95.2%
same,"viability, T/C",[47],87.6%
same,"viability, T/C",[48],66.2%
same,"viability, T/C","second compound 10 µM, first compound 9.49 µM",60.9%
same,"viability, T/C","second compound 10 µM, first compound 30 µM",48.1%
same,"viability, T/C",[51],82.6%
same,"viability, T/C",[52],107%
same,"viability, T/C",[53],80.2%
same,"viability, T/C",[54],70.3%
same,"viability, T/C","second compound 31.6 µM, first compound 9.49 µM",54.1%
same,"viability, T/C","second compound 31.6 µM, first compound 30 µM",45.8%
same,"viability, T/C",[57],83.4%
same,"viability, T/C",[58],85.6%
same,"viability, T/C",[59],72.6%
same,"viability, T/C",[60],49.2%
same,"viability, T/C","second compound 100 µM, first compound 9.49 µM",46.1%
same,"viability, T/C","second compound 100 µM, first compound 30 µM",44.7%
